Assay results reported in patent US20080207573A1, “COMPOUNDS FOR TREATING VIRAL INFECTIONS” (priority 2006, published 2008).
Where two headings read alike, the source gives them in different places.

Tests used:
HIV-1IIIB = experiment: PBMC Drug Susceptibility Assay (HIV-1 p24 in supernatant); assay type: cell-based; settings: Human immunodeficiency virus 1, PBMC, 168 h; Table 6; HIV-1IIIB-infected human PBMCs, seven days
Description: PBMC Drug Susceptibility Assay
Human peripheral blood mononuclear cells (PBMCS) were used to test compound antiviral activity as an indicator for clinical efficacy. PBMCs were isolated from two donors using a Ficoll-Hypaque density gradient, pooled and stimulated with PHA-L for three days. After stimulation, the cells were washed and maintained in culture medium containing IL-2. The stimulated cells were then mock-infected or batch-infected with the strain HIV-1IIIB at MOI 0.01 for one hour. Cells (unwashed) were then plated in the presence of increasing concentrations of compound and incubated for seven days. […] Compound toxicity in mock-infected cells was analyzed using the WST-1 assay.

[1] = Human Liver Microsome Assay (metabolic stability); assay type: in vitro ADME; settings: human liver microsomes 0.5 mg/mL, test article 1 μM; for half-life at 1 μM: pH 7.4, read-out: Metabolic Stability in Human liver Microsomes T1/2
Method: Human Liver Microsome Assay
The microsomal fraction of liver homogenates contains endoplasmic reticulum derived cytochrome P450 enzymes that constitute the major phase I drug metabolizing enzymes. Briefly, to aid prediction of the in vivo rate of clearance of a dosed test article, an in vitro incubation containing human liver microsomes (0.5 mg/mL final protein concentration) and test article (1 μM incubation concentration) in the presence and absence of the necessary cofactor NADPH (1 mM incubation concentration) is conducted. The incubation is performed in a buffered aqueous system (100 mM potassium phosphate, pH 7.4). The concentration of the parent compound is determined using liquid chromatography coupled with tandem mass spectrometry and reported as percent remaining from a zero minute concentrations.

[2] = system: HIV-1 laboratory strain, NL4-3; experiment: MT-4 Cytoprotection Assay (protection from HIV-induced cytopathic effect, WST-1 readout); assay type: cell-based
Method: MT-4 Cytoprotection Assay
(§1) The HTLV-1 transformed T cell line, MT-4, is highly susceptible to HIV-1 infection. Anti-HIV-1 agents were evaluated in this target cell line by protection from the HIV-induced cytopathic effect. In this assay, viability of both HIV-1 and mock-infected cells was assessed in a […] assay that monitors the ability of metabolically-active cells to reduce the tetrazolium salt WST-1. Cytoprotection by antiviral compounds is indicated by the positive readout of increased WST-1 cleavage.
(§2) Briefly, exponentially growing MT-4 cells were mock-infected or batch-infected with the HIV-1 laboratory strain, NL4-3, at a multiplicity of infection of 0.0005. Following a two hour infection, the cells were washed to remove unbound virus and plated in the presence of increasing concentrations of compound. After four days incubation, cytoprotection in the infected cells and compound toxicity in mock-infected cells were analyzed using the WST-1 assay.

[3] = Compound toxicity in mock-infected MT-4 cells (WST-1 assay); assay type: cell-based; settings: human, read-out: TC50 (concentration of compound that results in death of 50% of the host cells)
Method: as §1, §2

[4] = system: HIV-1 laboratory strain, NL4-3; experiment: MT-4 Cytoprotection Assay (protection from HIV-induced cytopathic effect, WST-1 readout); assay type: cell-based; settings: Human immunodeficiency virus 1, NL43; Table 6, printed in the MT4 IC50 column but marked MT4 assay
[5] = Human immunodeficiency virus 1, NL43, MT4, 96 h, MT-4 cells, HIV-1 NL4-3, four days, read-out: EC50 (concentration of compound that reduces the virus induced cytopathic effect by 50% (MT-4))
[6] = Human immunodeficiency virus 1, NL43, list of representative compounds, read-out: EC50 of less than about 100 nm (representative compounds)

Structure (SMILES)	IC50 (HIV-1IIIB) [nM]	Metabolic Stability in Human liver Microsomes % compound remaining at 40 minutes [1] [%]	half-life at 1 μM [1] [min]	EC50 [2, 5] [nM]	EC50 [2, 6] [nM]	CC50 at 4 days [3] [µM]	IC50 [4] [nM]
C=C(C)[C@@H]1CC[C@]2(C(=O)NC(C)(C)c3ccccn3)CC[C@]3(C)C(CCC4[C@@]5(C)CCC(OC(=O)CC(C)(C)C(=O)O)C(C)(C)C5CC[C@]43C)C12 (stereo partly drawn) [Compound 126]	47.5	47	38				
C=C(C)[C@@H]1CC[C@]2(C(=O)NCCc3ccc(OC)cc3)CC[C@]3(C)[C@H](CC[C@@H]4[C@@]5(C)CC[C@H](OC(=O)CC(C)(C)C(=O)O)C(C)(C)[C@@H]5CC[C@]43C)[C@@H]12 [Compound 70]				~2.9	< 100	> 10	
C=C(C)[C@@H]1CC[C@]2(C(=O)NCc3ccncc3)CC[C@]3(C)[C@H](CC[C@@H]4[C@@]5(C)CC[C@H](O)C(C)(C)[C@@H]5CC[C@]43C)[C@@H]12 [Compound 46]				~8600		> 10	
C=C(C)[C@@H]1CC[C@]2(C(=O)NCc3ccccc3C(=O)O)CC[C@]3(C)[C@H](CC[C@@H]4[C@@]5(C)CC[C@H](OC(=O)CC(C)(C)C(=O)O)C(C)(C)[C@@H]5CC[C@]43C)[C@@H]12 [Compound 73]				~8.1	< 100	~6.3	
C=C(C)[C@@H]1CC[C@]2(C(=O)N[C@H](C)c3ccccn3)CC[C@]3(C)C(CCC4[C@@]5(C)CCC(OC(=O)CC(C)(C)C(=O)O)C(C)(C)C5CC[C@]43C)C12 (single isomer, unassigned) [Compound 105a]	2.6	44	36				
C=C(C)[C@@H]1CC[C@]2(C(=O)NCc3ccccn3)CC[C@]3(C)[C@H](CC[C@@H]4[C@@]5(C)CC[C@H](OC(=O)CC(C)(C)C(=O)O)C(C)(C)[C@@H]5CC[C@]43C)[C@@H]12 [Compound 83]		11	< 10		< 100		4.6
C=C(C)[C@@H]1CC[C@]2(C(=O)N[C@@H](C)c3ccccn3)CC[C@]3(C)C(CCC4[C@@]5(C)CCC(OC(=O)CC(C)(C)C(=O)O)C(C)(C)C5CC[C@]43C)C12 (single isomer, unassigned) [Compound 105b]	3.1	32	27				
C=C(C)[C@@H]1CC[C@]2(C(=O)NCc3cccnc3)CC[C@]3(C)[C@H](CC[C@@H]4[C@@]5(C)CC[C@H](OC(=O)CC(C)(C)C(=O)O)C(C)(C)[C@@H]5CC[C@]43C)[C@@H]12 [Compound 76]				~11	< 100	> 10	
C=C(C)[C@@H]1CC[C@]2(C(=O)NCc3ccc(C(=O)O)cc3)CC[C@]3(C)[C@H](CC[C@@H]4[C@@]5(C)CC[C@H](OC(=O)CC(C)(C)C(=O)O)C(C)(C)[C@@H]5CC[C@]43C)[C@@H]12 [Compound 71]				~126		~7.7	
C=C(C)[C@@H]1CC[C@]2(C(=O)NC3(c4ccccn4)CC3)CC[C@]3(C)[C@H](CC[C@@H]4[C@@]5(C)CC[C@H](OC(=O)CC(C)(C)C(=O)O)C(C)(C)[C@@H]5CC[C@]43C)[C@@H]12 [Compound 121]	18	42	30		< 100		
